From patent US20220370451A1, “INHIBITORS OF HUMAN IMMUNODEFICIENCY VIRUS REPLICATION” (VIIV HEALTHCARE UK ( No. 5) LIMITED, priority 2019, published 2022) come the findings set out here.

Bounds are passed on as bounds.

Data set [1] is described as follows: Compound cytotoxicity, XTT-based colorimetric assay. The data set is classed as cell-based. Particulars: human; uninfected MT2 cells, day 4, XTT. As to the method:
Compound cytotoxicity and the corresponding CC50 values were determined using the same protocol as described in the antiviral assay except that uninfected cells were used. Cytotoxicity was assessed on day 4 in uninfected MT2 cells by using a XTT (2,3-bis[2-Methoxy-4-nitro-5-sulfophenyl]-2H-tetrazolium-5-carboxyanilide inner salt)-based colorimetric assay (Sigma-Aldrich, St Louis, Mo.).
On the technique in general: Tetrazolium dyes change colour on reduction, which living cells bring about.

For the next data set, the system named is recombinant NL4-3 virus. As to the kind of experiment: HIV cell culture assay (luciferase reporter antiviral activity). The class given is cell-based. Particulars: Human immunodeficiency virus 1, NL43, MT2. The protocol:
HIV cell culture assay—MT=2 cells, 293T cells and the proviral DNA clone of NL4-3 virus were obtained from the NIH AIDS Research and Reference Reagent Program. MT=2 cells were propagated in RPMI 1640 media supplemented with 10% heat inactivated fetal bovine serum (FBS), […] penicillin G and up to 100 units/mL streptomycin. The 293T cells were propagated in DMEM media supplemented with 10% heat inactivated FBS, […] penicillin G and […] streptomycin. A recombinant NL4-3 proviral clone, in which a section of the nef gene was replaced with the Renilla luciferase gene, was used to make the reference virus used in these studies. The recombinant virus was prepared through transfection of the recombinant NL4-3 proviral clone into 293T cells using Transit-293 Transfection Reagent from Mirus Bio LLC (Madison, Wis.). Supernatent was harvested after 2-3 days and the amount of virus present was titered in MT=2 cells using luciferase enzyme activity as a marker by measuring luciferase enzyme activity. Luciferase was quantitated using the EnduRen Live Cell Substrate from Promega (Madison, Wis.). Antiviral activities of compounds toward the recombinant virus were quantified by measuring luciferase activity in MT=2 cells infected for 4-5 days with the recombinant virus in the presence of serial dilutions of the compound.
The 50% effective concentration (EC50) was calculated by using the exponential form of the median effect equation where (Fa)=1/[1+(ED50/drug conc.)m] (Johnson V A, Byington RT. Infectivity Assay. In Techniques in HIV Research. ed. Aldovini A, Walker B D. 71-76. New York: Stockton Press.1990). The 50% inhibitory concentration (EC50) was calculated by using the exponential form of the median effect equation where percent inhibition=1/[1+(EC50/drug concentration)m], where m is a parameter that reflects the slope of the concentration-response curve.

A word on the CC50: it is the concentration at which the toxic effect on the cells reaches its halfway point. Usually EC50 stands for the concentration needed to bring the measured effect to its halfway point. In data set [1], `Cc1nccnc1-c1ccc2c(=O)n(-c3ccc(Cl)c4c(NS(C)(=O)=O)nn(C)c34)c([C@H](Cc3cc(F)cc(F)c3)NC(=O)Cn3nc(C(F)(F)F)cc3C(F)(F)F)nc2c1` (atropisomer, axis not shown; (P)) [Example 1, (S)-2-(3,5-bis(trifluoromethyl)-1H-pyrazol-1-yl)-N-(1-((3P)-3-(4-chloro-1-methyl-3-(methylsulfonamido)-1H-indazol-7-yl)-7-(3-methylpyrazin-2-yl)-4-oxo-3,4-dihydroquinazolin-2-yl)-2-(3,5-difluorophenyl)ethyl)acetamide] showed a CC50 at 4 days of over 500 nM. In addition, the 50% effective concentration (EC50) with recombinant NL4-3 virus stood at 1.9 nM.

As for `Cc1nccnc1-c1ccc2c(=O)n(-c3ccc(Cl)c4c(NS(C)(=O)=O)nn(C)c34)c([C@H](Cc3cc(F)cc(F)c3)NC(=O)Cn3nc(C4CC4)c4ccccc43)nc2c1` (atropisomer, axis not shown; (P)) [Example 2, (S)-N-(1-((3P)-3-(4-chloro-1-methyl-3-(methylsulfonamido)-1H-indazol-7-yl)-7-(3-methylpyrazin-2-yl)-4-oxo-3,4-dihydroquinazolin-2-yl)-2-(3,5-difluorophenyl)ethyl)-2-(3-cyclopropyl-1H-indazol-1-yl)acetamide], the CC50 at 4 days in data set [1] was over 500 nM. In the data set on recombinant NL4-3 virus, the EC50 worked out at 0.21 nM.

Turning to `Cc1cc(C)nc(-c2ccc3c(=O)n(-c4ccc(Cl)c5c(NS(C)(=O)=O)nn(C)c45)c([C@H](Cc4cc(F)cc(F)c4)NC(=O)Cn4nc(C(F)(F)F)cc4C(F)(F)F)nc3c2)n1` (atropisomer, axis not shown; (P)) [Example 3, (S)-2-(3,5-bis(trifluoromethyl)-1H-pyrazol-1-yl)-N-(1-((3P)-3-(4-chloro-1-methyl-3-(methylsulfonamido)-1H-indazol-7-yl)-7-(4,6-dimethylpyrimidin-2-yl)-4-oxo-3,4-dihydroquinazolin-2-yl)-2-(3,5-difluorophenyl)ethyl)acetamide], the cytotoxic concentration (CC50) at 4 days in data set [1] is over 500 nM. In addition, the 50% effective concentration (EC50) in the data set on recombinant NL4-3 virus is 3.6 nM.

Molecule `Cc1cc(C)nc(-c2ccc3c(=O)n(-c4ccc(Cl)c5c(NS(C)(=O)=O)nn(C)c45)c([C@H](Cc4cc(F)cc(F)c4)NC(=O)Cn4nc(C5CC5)c5ccccc54)nc3c2)n1` (atropisomer, axis not shown; (P)) [Example 4, (S)-N-(1-((3P)-3-(4-chloro-1-methyl-3-(methylsulfonamido)-1H-indazol-7-yl)-7-(4,6-dimethylpyrimidin-2-yl)-4-oxo-3,4-dihydroquinazolin-2-yl)-2-(3,5-difluorophenyl)ethyl)-2-(3-cyclopropyl-1H-indazol-1-yl)acetamide] had a CC50 at 4 days in data set [1] of over 500 nM. In addition, the 50% effective concentration (EC50) with recombinant NL4-3 virus came out at 0.91 nM.

The molecule `Cc1nccnc1-c1ccc2c(=O)n(-c3ccc(Cl)c4c(NS(C)(=O)=O)nn(C)c34)c([C@H](Cc3cc(F)cc(F)c3)NC(=O)Cn3ccc(C(C)(C)C)n3)nc2c1` (atropisomer, axis not shown; (P)) [Example 5, (S)-2-(3-(tert-butyl)-1H-pyrazol-1-yl)-N-(1-((3P)-3-(4-chloro-1-methyl-3-(methylsulfonamido)-1H-indazol-7-yl)-7-(3-methylpyrazin-2-yl)-4-oxo-3,4-dihydroquinazolin-2-yl)-2-(3,5-difluorophenyl)ethyl)acetamide] registered a cytotoxic concentration (CC50) at 4 days in data set [1] of over 500 nM. Besides, in the data set with recombinant NL4-3 virus, the EC50 is 0.65 nM.

As for `Cc1nccnc1-c1ccc2c(=O)n(-c3ccc(Cl)c4c(NS(C)(=O)=O)nn(C)c34)c([C@H](Cc3cc(F)cc(F)c3)NC(=O)Cn3nc(C(F)F)c4ccccc43)nc2c1` (atropisomer, axis not shown; (P)) [Example 7, (S)-N-(1-((3P)-3-(4-chloro-1-methyl-3-(methylsulfonamido)-1H-indazol-7-yl)-7-(3-methylpyrazin-2-yl)-4-oxo-3,4-dihydroquinazolin-2-yl)-2-(3,5-difluorophenyl)ethyl)-2-(3-(difluoromethyl)-1H-indazol-1-yl)acetamide], the CC50 at 4 days in data set [1] was over 500 nM. In the data set with recombinant NL4-3 virus, the concentration giving a half-maximal response (EC50) was 0.38 nM.

On to `Cc1nccnc1-c1ccc2c(=O)n(-c3ccc(Cl)c4c(NS(C)(=O)=O)nn(C)c34)c([C@H](Cc3cc(F)cc(F)c3)NC(=O)Cn3nc(C4CC4)cc3C)nc2c1` (atropisomer, axis not shown; (P)) [Example 10, (S)-N-(1-((3P)-3-(4-chloro-1-methyl-3-(methylsulfonamido)-1H-indazol-7-yl)-7-(3-methylpyrazin-2-yl)-4-oxo-3,4-dihydroquinazolin-2-yl)-2-(3,5-difluorophenyl)ethyl)-2-(3-cyclopropyl-5-methyl-1H-pyrazol-1-yl)acetamide], for which the CC50 at 4 days in data set [1] was over 500 nM. For the same molecule, the 50% effective concentration (EC50) in the data set with recombinant NL4-3 virus was 0.21 nM.

In data set [1], `Cc1nccnc1-c1ccc2c(=O)n(-c3ccc(Cl)c4c(NS(C)(=O)=O)nn(C)c34)c([C@H](Cc3cc(F)cc(F)c3)NC(=O)Cn3ccc(C4CCC4)n3)nc2c1` (atropisomer, axis not shown; (P)) [Example 11, (S)-N-(1-((3P)-3-(4-chloro-1-methyl-3-(methylsulfonamido)-1H-indazol-7-yl)-7-(3-methylpyrazin-2-yl)-4-oxo-3,4-dihydroquinazolin-2-yl)-2-(3,5-difluorophenyl)ethyl)-2-(3-cyclobutyl-1H-pyrazol-1-yl)acetamide] displayed a 50% cytotoxic concentration (CC50) at 4 days of over 500 nM. Further, the EC50 in the data set with recombinant NL4-3 virus is 0.39 nM.

On to `Cc1nccnc1-c1ccc2c(=O)n(-c3ccc(Cl)c4c(NS(C)(=O)=O)nn(C)c34)c([C@H](Cc3cc(F)cc(F)c3)NC(=O)Cn3nc(C(F)(F)F)cc3C)nc2c1` (atropisomer, axis not shown; (P)) [Example 12, (S)-N-(1-((3P)-3-(4-chloro-1-methyl-3-(methylsulfonamido)-1H-indazol-7-yl)-7-(3-methylpyrazin-2-yl)-4-oxo-3,4-dihydroquinazolin-2-yl)-2-(3,5-difluorophenyl)ethyl)-2-(5-methyl-3-(trifluoromethyl)-1H-pyrazol-1-yl)acetamide], for which, in data set [1], the CC50 at 4 days was over 500 nM. Further, the 50% effective concentration (EC50) with recombinant NL4-3 virus came out at 0.49 nM.

In data set [1], `O=C(Cn1nc(C2CC2)c2ccccc21)N[C@@H](Cc1cc(F)cc(F)c1)c1nc2nc(-c3ccccc3F)ccc2c(=O)n1-c1ccc(Cl)c2c(NS(=O)(=O)C3CC3)nn(CC(F)F)c12` (atropisomer, axis not shown; (P)) [Example 13, (S)-N-(1-((3P)-3-(4-chloro-3-(cyclopropanesulfonamido)-1-(2,2-difluoroethyl)-1H-indazol-7-yl)-7-(2-fluorophenyl)-4-oxo-3,4-dihydropyrido[2,3-d]pyrimidin-2-yl)-2-(3,5-difluorophenyl)ethyl)-2-(3-cyclopropyl-1H-indazol-1-yl)acetamide] came in with a CC50 at 4 days of over 500 nM. In addition, the 50% effective concentration (EC50) in the data set on recombinant NL4-3 virus was determined as 0.47 nM.

Regarding `Cn1nc(NS(C)(=O)=O)c2c(Cl)ccc(-n3c([C@H](Cc4cc(F)cc(F)c4)NC(=O)Cn4ccc(C(C)(C)C)n4)nc4nc(-c5ccccc5F)ccc4c3=O)c21` (atropisomer, axis not shown; (P)) [Example 14, (S)-2-(3-(tert-butyl)-1H-pyrazol-1-yl)-N-(1-((3P)-3-(4-chloro-1-methyl-3-(methylsulfonamido)-1H-indazol-7-yl)-7-(2-fluorophenyl)-4-oxo-3,4-dihydropyrido[2,3-d]pyrimidin-2-yl)-2-(3,5-difluorophenyl)ethyl)acetamide], the CC50 at 4 days in data set [1] is over 500 nM. The 50% effective concentration (EC50) in the data set with recombinant NL4-3 virus is 0.53 nM.
